Laboratory results from PubChem BioAssay AID330 (DTP/NCI, 2004).
Values joined by “and” are separate entries in the source; they are usually repeats but may differ in a detail not shown here. Equal entries are not always repeated. Toxic doses and inconclusive results are not listed. Rule for the calls: active = survival T/C of 150% or more; inactive = T/C below 125% in these data.

Tested on: P388 leukemia ip, CD2F1 mice, survival T/C
Experiment: NCI In Vivo Anticancer Drug Screen. Data for tumor model P388 Leukemia (intraperitoneal) in CD2F1 (CDF1) mice
Conditions: endpoint: median survival time, higher = longer survival
Procedure, shortened: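 Mice carrying the transplanted tumor received test compound or vehicle. Survival was recorded in each group, and the value is the treated-group measurement divided by that of the vehicle-treated control group.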

[1] = dose: 50.0 mg/kg/injection, schedule: Q01DX009 (ip), vehicle: saline
[2] = dose: 50.0 mg/kg/injection, schedule: Q01DX009 (ip), vehicle: saline with Tween-80
[3] = dose: 100.0 mg/kg/injection, schedule: Q01DX009 (ip), vehicle: saline with Tween-80
[4] = dose: 200.0 mg/kg/injection, schedule: Q01DX009 (ip), vehicle: saline with Tween-80
[5] = dose: 100.0 mg/kg/injection, schedule: Q01DX009 (ip), vehicle: saline
[6] = dose: 50.0 mg/kg/injection, schedule: Q01DX009 (ip), vehicle: Klucel (hydroxypropylcellulose) (HPC)
[7] = dose: 100.0 mg/kg/injection, schedule: Q01DX009 (ip), vehicle: Klucel (hydroxypropylcellulose) (HPC)
[8] = dose: 200.0 mg/kg/injection, schedule: Q01DX009 (ip), vehicle: Klucel (hydroxypropylcellulose) (HPC)
[9] = dose: 50.0 mg/kg/injection, schedule: Q01DX005 (ip), vehicle: saline with Tween-80
[10] = dose: 100.0 mg/kg/injection, schedule: Q01DX005 (ip), vehicle: saline with Tween-80
[11] = dose: 200.0 mg/kg/injection, schedule: Q01DX005 (ip), vehicle: saline with Tween-80
[12] = dose: 25.0 mg/kg/injection, schedule: Q01DX009 (ip), vehicle: other
[13] = dose: 50.0 mg/kg/injection, schedule: Q01DX009 (ip), vehicle: other
[14] = dose: 100.0 mg/kg/injection, schedule: Q01DX009 (ip), vehicle: other
[15] = dose: 200.0 mg/kg/injection, schedule: Q01DX009 (ip), vehicle: other
[16] = dose: 400.0 mg/kg/injection, schedule: Q01DX009 (ip), vehicle: other
[17] = dose: 60.0 mg/kg/injection, schedule: Q01DX005 (ip), vehicle: saline with Tween-80
[18] = dose: 120.0 mg/kg/injection, schedule: Q01DX005 (ip), vehicle: saline with Tween-80

Measured: T/C

Cc1cc2nc3ccc(N)cc3oc-2cc1=[N+](C)C
inactive: dose: 6.25 mg/kg/injection, schedule: Q01DX009 (ip), vehicle: saline 108 % of control | [1] 100 % of control

CCCC(O)(CCC)/C(C)=N/NC(N)=O
inactive: [2] 95 % of control | [3] 97 % of control | [4] 92 % of control

Nc1nc(N)c(N=O)c(N)n1
inactive: dose: 44.0 mg/kg/injection, schedule: Q01DX009 (ip), vehicle: saline 104 % of control | dose: 66.0 mg/kg/injection, schedule: Q01DX009 (ip), vehicle: saline 104 % of control | [5] 104 % of control | dose: 150.0 mg/kg/injection, schedule: Q01DX009 (ip), vehicle: saline 102 % of control

CCCCN(CCCC)C(=O)/C(O)=C(\O)C(=O)N(CCCC)CCCC
inactive: dose: 25.0 mg/kg/injection, schedule: Q01DX005 (ip), vehicle: saline 90 % of control | dose: 50.0 mg/kg/injection, schedule: Q01DX005 (ip), vehicle: saline 96 % of control | dose: 100.0 mg/kg/injection, schedule: Q01DX005 (ip), vehicle: saline 92 % of control | dose: 200.0 mg/kg/injection, schedule: Q01DX005 (ip), vehicle: saline 113 % of control

CCOc1c(OC)cc(-c2n[nH]c(=O)o2)cc1OC
inactive: dose: 33.75 mg/kg/injection, schedule: Q01DX009 (ip), vehicle: Klucel (hydroxypropylcellulose) (HPC) 90 % of control | dose: 67.5 mg/kg/injection, schedule: Q01DX009 (ip), vehicle: Klucel (hydroxypropylcellulose) (HPC) 105 % of control | dose: 135.0 mg/kg/injection, schedule: Q01DX009 (ip), vehicle: Klucel (hydroxypropylcellulose) (HPC) 99 % of control

CCCOCC(O)CNCCN (configuration not stated)
inactive: [6] 100 % of control | [7] 102 % of control | [8] 109 % of control

CC(=O)CC1C(=O)OC(C)(C)OC1=O
inactive: [9] 112 % of control | [10] 106 % of control | [11] 103 % of control

CN1CCC(C#N)(c2ccccn2)CC1
inactive: dose: 2.5 mg/kg/injection, schedule: Q01DX009 (ip), vehicle: saline 100 % of control | dose: 5.0 mg/kg/injection, schedule: Q01DX009 (ip), vehicle: saline 109 % of control | dose: 10.0 mg/kg/injection, schedule: Q01DX009 (ip), vehicle: saline 100 % of control

Nc1ccc(S(=O)(=O)F)cc1Cl
inactive: [1] 100 % of control | [5] 97 % of control | dose: 200.0 mg/kg/injection, schedule: Q01DX009 (ip), vehicle: saline 111 % of control

CCCCCCN1CCS(=O)(=O)CC1
inactive: [6] 91 % of control | [7] 94 % of control | [8] 90 % of control

NC(=O)c1nc2c(N)nc(-c3ccccc3)nc2nc1N
inactive: dose: 150.0 mg/kg/injection, schedule: Q01DX009 (ip), vehicle: saline with Tween-80 94 % of control | dose: 300.0 mg/kg/injection, schedule: Q01DX009 (ip), vehicle: saline with Tween-80 95 % of control

COC1OC2COC(c3ccccc3)OC2C2OC(c3ccccc3)OC12 (configuration not stated)
inactive: dose: 1.56 mg/kg/injection, schedule: Q01DX009 (ip), vehicle: other 116 % of control | dose: 3.13 mg/kg/injection, schedule: Q01DX009 (ip), vehicle: other 106 % of control | dose: 6.25 mg/kg/injection, schedule: Q01DX009 (ip), vehicle: other 119 % of control | dose: 12.5 mg/kg/injection, schedule: Q01DX009 (ip), vehicle: other 113 % of control | [12] 113 % of control and 87 % of control | [13] 91 % of control | [14] 91 % of control | [15] 89 % of control | [16] 92 % of control

COc1ccc(NC(=O)c2cc3ccc4c5ccccc5[nH]c4c3cc2O)cc1
inactive: [9] 90 % of control | [10] 88 % of control

O=C(c1ccccc1)c1cccc[n+]1Cc1ccccc1
inactive: dose: 12.5 mg/kg/injection, schedule: Q01DX009 (ip), vehicle: saline 103 % of control | dose: 25.0 mg/kg/injection, schedule: Q01DX009 (ip), vehicle: saline 96 % of control | [1] 98 % of control and 100 % of control

NC(=O)C(CCc1nc2ccccc2[nH]1)NS(=O)(=O)c1ccccc1 (configuration not stated)
inactive: [6] 102 % of control | [7] 101 % of control | [8] 102 % of control

CC(C)C1SCC(=O)N1c1nncs1 (configuration not stated)
inactive: [17] 103 % of control | [18] 112 % of control | dose: 240.0 mg/kg/injection, schedule: Q01DX005 (ip), vehicle: saline with Tween-80 107 % of control

O=[N+]([O-])c1ccc(C(c2ccccc2)c2ccccc2)cc1
inactive: [4] 90 % of control

CCCCCCCCCCCCCC[N+]1([O-])CCCC1
inactive: [1] 94 % of control

O=C(Oc1ccc(NC(=O)c2cc3c(cc2Br)OCO3)cc1)c1ccccc1
inactive: [12] 104 % of control | [13] 103 % of control | [14] 89 % of control | [15] 97 % of control | [16] 95 % of control

CCCCCCC(O)/C=C/c1ccc(N(C)C)cc1 (configuration not stated)
inactive: [6] 103 % of control | [7] 99 % of control | [8] 102 % of control

CC(=O)N1N=C(C)C2ON=C(c3ccc(Cl)cc3)P21 (configuration not stated)
inactive: dose: 50.0 mg/kg/injection, schedule: Q01DX005 (ip), vehicle: Klucel (hydroxypropylcellulose) (HPC) 107 % of control | dose: 100.0 mg/kg/injection, schedule: Q01DX005 (ip), vehicle: Klucel (hydroxypropylcellulose) (HPC) 100 % of control | dose: 200.0 mg/kg/injection, schedule: Q01DX005 (ip), vehicle: Klucel (hydroxypropylcellulose) (HPC) 100 % of control

CN1c2ccc(Cl)cc2C(=O)NC1c1ccc([N+](=O)[O-])s1 (configuration not stated)
inactive: [2] 106 % of control | [3] 108 % of control | [4] 113 % of control | dose: 400.0 mg/kg/injection, schedule: Q01DX009 (ip), vehicle: saline with Tween-80 115 % of control

CC(O)C(N=C1N=CNC2=NC=NC12)C(=O)O (configuration not stated)
inactive: [9] 100 % of control | [10] 96 % of control | [11] 95 % of control

C/C(=N\NC(=S)N1CCCCCC1)c1cccc2cccnc12
inactive: [9] 107 % of control | [10] 103 % of control | [11] 116 % of control

CC12C=CC(O1)C1C(=O)OC(=O)C12 (configuration not stated)
inactive: [17] 101 % of control | [18] 90 % of control

COC(=O)CC1(C(=O)OC)c2sc(-c3ccccc3OC)cc2N2CCCC21 (configuration not stated)
inactive: dose: 0.63 mg/kg/injection, schedule: Q01DX009 (ip), vehicle: Klucel (hydroxypropylcellulose) (HPC) 106 % of control | dose: 1.25 mg/kg/injection, schedule: Q01DX009 (ip), vehicle: Klucel (hydroxypropylcellulose) (HPC) 102 % of control | dose: 2.5 mg/kg/injection, schedule: Q01DX009 (ip), vehicle: Klucel (hydroxypropylcellulose) (HPC) 102 % of control | dose: 5.0 mg/kg/injection, schedule: Q01DX009 (ip), vehicle: Klucel (hydroxypropylcellulose) (HPC) 100 % of control | dose: 10.0 mg/kg/injection, schedule: Q01DX009 (ip), vehicle: Klucel (hydroxypropylcellulose) (HPC) 105 % of control

CC1=NOCC(=O)N1
inactive: dose: 50.0 mg/kg/injection, schedule: Q01DX005 (ip), vehicle: distilled water + alcohol 106 % of control | dose: 100.0 mg/kg/injection, schedule: Q01DX005 (ip), vehicle: distilled water + alcohol 102 % of control | dose: 200.0 mg/kg/injection, schedule: Q01DX005 (ip), vehicle: distilled water + alcohol 105 % of control

CCN(CC)[P+](C1=C(Cl)C(=O)C(Cl)=C(Cl)C1=O)(N(CC)CC)N(CC)CC
inactive: dose: 12.5 mg/kg/injection, schedule: Q01DX009 (ip), vehicle: saline with Tween-80 105 % of control | dose: 25.0 mg/kg/injection, schedule: Q01DX009 (ip), vehicle: saline with Tween-80 93 % of control | [2] 103 % of control

CN1CCN(CCCN(c2cccc(C(F)(F)F)c2)c2cccc(C(F)(F)F)c2)CC1
inactive: dose: 50.0 mg/kg/injection, schedule: Q01DX001 (ip), vehicle: Klucel (hydroxypropylcellulose) (HPC) 100 % of control | dose: 100.0 mg/kg/injection, schedule: Q01DX001 (ip), vehicle: Klucel (hydroxypropylcellulose) (HPC) 98 % of control | dose: 200.0 mg/kg/injection, schedule: Q01DX001 (ip), vehicle: Klucel (hydroxypropylcellulose) (HPC) 92 % of control
